Patent US9539322B2, “Method of enhancing an antitumor T cell response by administering an anti-IL-6 receptor antibody” (National University Corporation Hokkaido University, priority 2010, dated 2017)
Structures can show the parent of a compound that is named as a salt.

Tests used:
CD8^+ cells = assay: Growth ability of spleen CD8+ cells after anti-CD3 stimulation (3H incorporation test), CMC-1 tumor-bearing mice; format: in vivo, BALB/c mice; settings: i.p. 30 days after CMC-1 inoculation (GEM; CY 60 mg/kg; 5-FU 120 mg/kg); spleen CD8+ cells after 48 hours; 60 hours immobilized anti-CD3 2 μg/ml; FIG. 3
Method: (§1) GEM was administered to the tumor-bearing mice 30 days after CMC-1 inoculation, and after 48 hours the absolute number of respective cell populations in the spleen were analyzed by flow cytometry. Cyclophosphamide (CY) (60 mg/kg), fluoro-5-uracil (5-FU) (120 mg/kg), or GEM was intraperitoneally administered to tumor-bearing mice 30 days after CMC-1 inoculation. After 48 hours, CD8^+ cells were isolated from the spleen, and the growth ability after 60 hours of stimulation with immobilized anti-CD3 antibody (2 μg/ml) was assessed by ^3H incorporation test.

CD8^+ T cells = assay: Tumor diameter with GEM and anti-CD8 antibody (CMC-1); proportion of OVA-specific CD8+ cytotoxic T cells (LLC-OVA); format: in vivo, BALB/c mice; C57BL6 mice; settings: GEM 120 mg/kg i.p.; anti-CD8 antibody 250 μg i.v. every three days (CMC-1); OVA-specific CD8+ CTL in regional lymph nodes (LLC-OVA); FIG. 4, 5
Method: CMC-1 (2×10^6) was intradermally inoculated to BALB/c mice. From day 5 after inoculation, GEM (120 mg/kg) was intraperitoneally administered every week and anti-CD8 antibody (250 μg) was intravenously administered every three days. The tumor diameter was measured every two days. LLC-OVA (2×10^6) prepared by introducing the ovalbumin (OVA) gene into mouse lung cancer cell line LLC was intradermally inoculated to C57BL6 mice, and after five days GEM (120 mg/kg) was intraperitoneally administered. After nine days, the regional lymph nodes were collected and assessed by flow cytometry for the proportion of OVA-specific CD8^+ cytotoxic T cells.

immunosuppressive cells = assay: Flow cytometry of the absolute number of cell populations in the spleen of CMC-1 tumor-bearing mice; format: in vivo, BALB/c mice; settings: tumor-bearing mice 30 days after CMC-1 inoculation; 48 hours after administration; FIG. 2
Method: as §1

[1] = test system: methylcholanthrene-induced squamous cancer CMC-1; assay: Antitumor effect of GEM in CMC-1-inoculated mice (tumor growth); format: in vivo; settings: CMC-1 intradermal in BALB/c mice; 120 mg/kg i.p. every week from day 5; FIG. 1
Method: Cell line of methylcholanthrene-induced squamous cancer CMC-1 (2×10^6 cells) was intradermally inoculated to BALB/c mice, and from day 5 after inoculation, GEM (Gemzar: gemcitabine hydrochloride) was intraperitoneally administered at 120 mg/kg every week. The tumor growth was measured every two days to evaluate the antitumor effect of GEM.

SMILES	growth-enhancing effect for CD8+ T cells (CD8^+ cells)	antitumor effect through CD8+ T cell activity (CD8^+ T cells)	elimination of immunosuppressive cells in the spleen (immunosuppressive cells)	tumor growth-suppressive effect [1]
O=c1[nH]cc(F)c(=O)[nH]1 [5-FU, fluoro-5-uracil]	not observed	–	–	–
O=P1(N(CCCl)CCCl)NCCCO1 (stereo not drawn) [CY, Cyclophosphamide]	not observed	–	–	–
Nc1ccn([C@@H]2O[C@H](CO)[C@@H](O)C2(F)F)c(=O)n1 [GEM, gemcitabine hydrochloride]	excellent growth-enhancing effect for CD8^+ T cells	produces the antitumor effect by enhancing the activity of CD8^+ T cells	eliminates immunosuppressive cells	tumor growth-suppressive effect
